Source: PubChem BioAssay AID1259407 (Chemical Carcinogenesis Research Information System (CCRIS), 2018)
Active and inactive are the calls of the source. No rule for the calls is given here.

Tested on: CCRIS mutagenicity, Ames/micronucleus/aberration tests
Assay: CCRIS mutagenicity studies
Details: Test System: AMES SALMONELLA TYPHIMURIUM, Method: PREINCUBATION

COc1ccc(C(=O)c2ccccc2O)c(O)c1
mutagenic call (Strain/Indicator: TA98, Metabolic Activation: HAMSTER, LIVER, S-9, AROCLOR 1254 (10%)): inactive; negative
mutagenic call (Strain/Indicator: TA98, Metabolic Activation: NONE): inactive; negative
mutagenic call (Strain/Indicator: TA98, Metabolic Activation: RAT, LIVER, S-9, AROCLOR 1254 (10%)): inactive; negative
mutagenic call (Strain/Indicator: TA100, Metabolic Activation: HAMSTER, LIVER, S-9, AROCLOR 1254 (10%)): inactive; negative
mutagenic call (Strain/Indicator: TA100, Metabolic Activation: NONE): inactive; negative
mutagenic call (Strain/Indicator: TA100, Metabolic Activation: RAT, LIVER, S-9, AROCLOR 1254 (10%)): inactive; negative
mutagenic call (Strain/Indicator: TA1535, Metabolic Activation: HAMSTER, LIVER, S-9, AROCLOR 1254 (10%)): inactive; negative
mutagenic call (Strain/Indicator: TA1535, Metabolic Activation: NONE): inactive; negative
mutagenic call (Strain/Indicator: TA1535, Metabolic Activation: RAT, LIVER, S-9, AROCLOR 1254 (10%)): inactive; negative
mutagenic call (Strain/Indicator: TA1537, Metabolic Activation: HAMSTER, LIVER, S-9, AROCLOR 1254 (10%)): active; positive
mutagenic call (Strain/Indicator: TA1537, Metabolic Activation: NONE): inactive; negative
mutagenic call (Strain/Indicator: TA1537, Metabolic Activation: RAT, LIVER, S-9, AROCLOR 1254 (10%)): active; positive
